According to BindingDB's records for doi:10.1021/jm0200660 (Berlex Biosciences, 2002):

Target: Cationic trypsin (Bos taurus)
Assay: Inhibitory constant against bovine trypsin for general specificity against serine proteases

Ki: > 5 µM
SMILES: Cc1c(F)c(Oc2cccc(C(=N)N)c2)nc(Oc2cccc(C(N)=O)c2)c1F [3-[6-(3-Carbamimidoyl-phenoxy)-3,5-difluoro-4-methyl-pyridin-2-yloxy]-benzamide]
